Laboratory results: PubChem BioAssay (NCI)
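Tested at 5 concentrations; 48 h exposure; 96-well plates; endpoints linearly interpolated, else capped at highest concentration. The concentration for full growth arrest is given as TGI.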

Assays:
Experiment in all cases: DTP human tumour cell line panel, 48 h
SNB-75 CNS = tested on: SNB-75 CNS
MCF7 breast = tested on: MCF7 breast
HCT-116 colon = tested on: HCT-116 colon
NCI-H460 lung = tested on: NCI-H460 lung
LOX IMVI melanoma = tested on: LOX IMVI melanoma
SF-295 CNS = tested on: SF-295 CNS
CCRF-CEM leukemia = tested on: CCRF-CEM leukemia
ACHN renal = tested on: ACHN renal
OVCAR-8 ovarian = tested on: OVCAR-8 ovarian
SK-MEL-28 melanoma = tested on: SK-MEL-28 melanoma
CAKI-1 renal = tested on: CAKI-1 renal
MDA-MB-435 = tested on: MDA-MB-435
A498 renal = tested on: A498 renal
RXF 393 renal = tested on: RXF 393 renal
BT-549 breast = tested on: BT-549 breast
T-47D breast = tested on: T-47D breast
OVCAR-5 ovarian = tested on: OVCAR-5 ovarian
HT29 colon = tested on: HT29 colon
NCI-H522 lung = tested on: NCI-H522 lung
UACC-257 melanoma = tested on: UACC-257 melanoma
M14 melanoma = tested on: M14 melanoma
SN12C renal = tested on: SN12C renal
SF-539 CNS = tested on: SF-539 CNS
TK-10 renal = tested on: TK-10 renal
SF-268 CNS = tested on: SF-268 CNS
MALME-3M melanoma = tested on: MALME-3M melanoma
K-562 leukemia = tested on: K-562 leukemia
COLO 205 colon = tested on: COLO 205 colon
786-0 renal = tested on: 786-0 renal
RPMI-8226 leukemia = tested on: RPMI-8226 leukemia
A549 NSCLC = tested on: A549 NSCLC
HOP-92 NSCLC = tested on: HOP-92 NSCLC
HS 578T breast = tested on: HS 578T breast
IGROV1 ovarian = tested on: IGROV1 ovarian
PC-3 prostate = tested on: PC-3 prostate
DU-145 prostate = tested on: DU-145 prostate
EKVX NSCLC = tested on: EKVX NSCLC
KM12 colon = tested on: KM12 colon
U251 CNS = tested on: U251 CNS
SK-OV-3 ovarian = tested on: SK-OV-3 ovarian
SW-620 colon = tested on: SW-620 colon
MDA-N = tested on: MDA-N
HCC-2998 colon = tested on: HCC-2998 colon
SNB-19 CNS = tested on: SNB-19 CNS
NCI-H23 lung = tested on: NCI-H23 lung
MDA-MB-231 breast = tested on: MDA-MB-231 breast
HCT-15 colon = tested on: HCT-15 colon
NCI/ADR-RES ovarian = tested on: NCI/ADR-RES ovarian
OVCAR-3 ovarian = tested on: OVCAR-3 ovarian
SK-MEL-2 melanoma = tested on: SK-MEL-2 melanoma
HL-60(TB) leukemia = tested on: HL-60(TB) leukemia
HOP-62 NSCLC = tested on: HOP-62 NSCLC
MOLT-4 leukemia = tested on: MOLT-4 leukemia
UACC-62 melanoma = tested on: UACC-62 melanoma
NCI-H226 lung = tested on: NCI-H226 lung
OVCAR-4 ovarian = tested on: OVCAR-4 ovarian
SK-MEL-5 melanoma = tested on: SK-MEL-5 melanoma
UO-31 renal = tested on: UO-31 renal

O=C1c2[nH]c3ccccc3c2CCN2CCCCC12 (configuration not stated)
TGI (SNB-75 CNS): 73.5 µM | TGI (MCF7 breast): > 100 µM | TGI (HCT-116 colon): 54.6 µM | TGI (NCI-H460 lung): > 100 µM | TGI (LOX IMVI melanoma): 44.9 µM | TGI (SF-295 CNS): 90.2 µM | TGI (CCRF-CEM leukemia): 57.3 µM | TGI (ACHN renal): 46 µM | TGI (OVCAR-8 ovarian): 65.9 µM | TGI (SK-MEL-28 melanoma): > 100 µM | TGI (CAKI-1 renal): > 100 µM | TGI (MDA-MB-435): 31 µM | TGI (A498 renal): 78.3 µM | TGI (RXF 393 renal): 61.2 µM | TGI (BT-549 breast): 65.8 µM | TGI (T-47D breast): 74.9 µM | TGI (OVCAR-5 ovarian): 44.1 µM | TGI (HT29 colon): > 100 µM | TGI (NCI-H522 lung): 39.8 µM | TGI (UACC-257 melanoma): 39.5 µM | TGI (M14 melanoma): 35.3 µM | TGI (SN12C renal): > 100 µM | TGI (SF-539 CNS): 40.2 µM | TGI (TK-10 renal): 72.4 µM | TGI (SF-268 CNS): 78.9 µM | TGI (MALME-3M melanoma): 46.5 µM | TGI (K-562 leukemia): 95.3 µM | TGI (COLO 205 colon): 34.9 µM | TGI (786-0 renal): 56.9 µM | TGI (RPMI-8226 leukemia): 42.6 µM | TGI (A549 NSCLC): 76.3 µM | TGI (HOP-92 NSCLC): 41.8 µM | TGI (HS 578T breast): 71.8 µM | TGI (IGROV1 ovarian): 56 µM | TGI (PC-3 prostate): 35.7 µM | TGI (DU-145 prostate): > 100 µM | TGI (EKVX NSCLC): 53.7 µM | TGI (KM12 colon): 32.4 µM | TGI (U251 CNS): 38.3 µM | TGI (SK-OV-3 ovarian): > 100 µM | TGI (SW-620 colon): 65.9 µM | TGI (MDA-N): 39.6 µM | TGI (HCC-2998 colon): 33.2 µM | TGI (SNB-19 CNS): 61.7 µM | TGI (NCI-H23 lung): 63.7 µM | TGI (MDA-MB-231 breast): 41.3 µM | TGI (HCT-15 colon): > 100 µM | TGI (NCI/ADR-RES ovarian): 59 µM | TGI (OVCAR-3 ovarian): 37.1 µM | TGI (SK-MEL-2 melanoma): 36.3 µM | TGI (HL-60(TB) leukemia): 13.3 µM | TGI (HOP-62 NSCLC): > 100 µM | TGI (MOLT-4 leukemia): 56.7 µM | TGI (UACC-62 melanoma): 37 µM | TGI (NCI-H226 lung): 48.8 µM | TGI (OVCAR-4 ovarian): 96.5 µM

O=C1C(Cl)=C(Cl)C(=O)C2=C1C1c3ccccc3C2c2ccccc21
TGI (SNB-75 CNS): > 100 µM | TGI (MCF7 breast): > 100 µM | TGI (HCT-116 colon): > 100 µM | TGI (NCI-H460 lung): 99.2 µM | TGI (SF-295 CNS): > 100 µM | TGI (CCRF-CEM leukemia): > 100 µM | TGI (ACHN renal): > 100 µM | TGI (OVCAR-8 ovarian): > 100 µM | TGI (SK-MEL-28 melanoma): > 100 µM | TGI (MDA-MB-435): > 100 µM | TGI (A498 renal): > 100 µM | TGI (RXF 393 renal): 75.2 µM | TGI (BT-549 breast): > 100 µM | TGI (T-47D breast): 60.1 µM | TGI (OVCAR-5 ovarian): > 100 µM | TGI (HT29 colon): > 100 µM | TGI (NCI-H522 lung): 33 µM | TGI (SK-MEL-5 melanoma): > 100 µM | TGI (UACC-257 melanoma): > 100 µM | TGI (M14 melanoma): > 100 µM | TGI (SN12C renal): > 100 µM | TGI (SF-539 CNS): 65.9 µM | TGI (TK-10 renal): > 100 µM | TGI (SF-268 CNS): > 100 µM | TGI (MALME-3M melanoma): 57.7 µM | TGI (K-562 leukemia): > 100 µM | TGI (COLO 205 colon): 61.4 µM | TGI (786-0 renal): 47.4 µM | TGI (RPMI-8226 leukemia): 53.5 µM | TGI (A549 NSCLC): > 100 µM | TGI (HOP-92 NSCLC): 43.5 µM | TGI (HS 578T breast): > 100 µM | TGI (IGROV1 ovarian): > 100 µM | TGI (PC-3 prostate): > 100 µM | TGI (DU-145 prostate): > 100 µM | TGI (EKVX NSCLC): > 100 µM | TGI (KM12 colon): > 100 µM | TGI (U251 CNS): 45.4 µM | TGI (SK-OV-3 ovarian): > 100 µM | TGI (SW-620 colon): 59.5 µM | TGI (MDA-N): > 100 µM | TGI (HCC-2998 colon): > 100 µM | TGI (SNB-19 CNS): > 100 µM | TGI (UO-31 renal): > 100 µM | TGI (NCI-H23 lung): > 100 µM | TGI (MDA-MB-231 breast): 65.2 µM | TGI (HCT-15 colon): > 100 µM | TGI (NCI/ADR-RES ovarian): > 100 µM | TGI (OVCAR-3 ovarian): > 100 µM | TGI (SK-MEL-2 melanoma): > 100 µM | TGI (HL-60(TB) leukemia): 52.5 µM | TGI (HOP-62 NSCLC): 59.4 µM | TGI (MOLT-4 leukemia): > 100 µM | TGI (UACC-62 melanoma): 79.9 µM | TGI (NCI-H226 lung): > 100 µM | TGI (OVCAR-4 ovarian): > 100 µM
